# Experimental data from PubChem BioAssay (NCI).
#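 1) Cells in 96-well plates. 2) Compound, 48 h, 5 concentrations. 3) Linear interpolation between surrounding doses. 4) Unreached endpoint = highest concentration. TGI is the concentration that stops growth completely.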
# Legend:
# Test in all cases: DTP human tumour cell line panel, 48 h
# 786-0 renal = tested on: 786-0 renal
# A498 renal = tested on: A498 renal
# A549 NSCLC = tested on: A549 NSCLC
# ACHN renal = tested on: ACHN renal
# CAKI-1 renal = tested on: CAKI-1 renal
# CCRF-CEM leukemia = tested on: CCRF-CEM leukemia
# COLO 205 colon = tested on: COLO 205 colon
# DLD-1 colon = tested on: DLD-1 colon
# DMS 114 small cell lung = tested on: DMS 114 small cell lung
# DMS 273 small cell lung = tested on: DMS 273 small cell lung
# EKVX NSCLC = tested on: EKVX NSCLC
# HCC-2998 colon = tested on: HCC-2998 colon
# HCT-116 colon = tested on: HCT-116 colon
# HCT-15 colon = tested on: HCT-15 colon
# HL-60(TB) leukemia = tested on: HL-60(TB) leukemia
# HOP-18 NSCLC = tested on: HOP-18 NSCLC
# HOP-62 NSCLC = tested on: HOP-62 NSCLC
# HOP-92 NSCLC = tested on: HOP-92 NSCLC
# HT29 colon = tested on: HT29 colon
# IGROV1 ovarian = tested on: IGROV1 ovarian
# K-562 leukemia = tested on: K-562 leukemia
# KM12 colon = tested on: KM12 colon
# KM20L2 colon = tested on: KM20L2 colon
# LOX IMVI melanoma = tested on: LOX IMVI melanoma
# LXFL 529 NSCLC = tested on: LXFL 529 NSCLC
# M14 melanoma = tested on: M14 melanoma
# M19-MEL melanoma = tested on: M19-MEL melanoma
# MALME-3M melanoma = tested on: MALME-3M melanoma
# MOLT-4 leukemia = tested on: MOLT-4 leukemia
# NCI-H226 lung = tested on: NCI-H226 lung
# NCI-H23 lung = tested on: NCI-H23 lung
# NCI-H460 lung = tested on: NCI-H460 lung
# NCI-H522 lung = tested on: NCI-H522 lung
# OVCAR-3 ovarian = tested on: OVCAR-3 ovarian
# OVCAR-4 ovarian = tested on: OVCAR-4 ovarian
# OVCAR-5 ovarian = tested on: OVCAR-5 ovarian
# OVCAR-8 ovarian = tested on: OVCAR-8 ovarian
# RPMI-8226 leukemia = tested on: RPMI-8226 leukemia
# RXF 393 renal = tested on: RXF 393 renal
# SF-268 CNS = tested on: SF-268 CNS
# SF-295 CNS = tested on: SF-295 CNS
# SF-539 CNS = tested on: SF-539 CNS
# SK-MEL-2 melanoma = tested on: SK-MEL-2 melanoma
# SK-MEL-28 melanoma = tested on: SK-MEL-28 melanoma
# SK-MEL-5 melanoma = tested on: SK-MEL-5 melanoma
# SK-OV-3 ovarian = tested on: SK-OV-3 ovarian
# SN12C renal = tested on: SN12C renal
# SNB-19 CNS = tested on: SNB-19 CNS
# SNB-75 CNS = tested on: SNB-75 CNS
# SNB-78 CNS = tested on: SNB-78 CNS
# SR leukemia = tested on: SR leukemia
# SW-620 colon = tested on: SW-620 colon
# TK-10 renal = tested on: TK-10 renal
# U251 CNS = tested on: U251 CNS
# UACC-257 melanoma = tested on: UACC-257 melanoma
# UACC-62 melanoma = tested on: UACC-62 melanoma
# UO-31 renal = tested on: UO-31 renal
# XF 498 CNS = tested on: XF 498 CNS
smiles,measurement,setting,value
C=C(CCCCC)CN1CCCC1C(C)=O (configuration not stated),TGI,786-0 renal,> 100 µM
same,TGI,A498 renal,> 93.5 µM
same,TGI,A549 NSCLC,> 100 µM
same,TGI,ACHN renal,> 85.4 µM
same,TGI,CAKI-1 renal,> 92.3 µM
same,TGI,CCRF-CEM leukemia,41.2 µM
same,TGI,COLO 205 colon,32.4 µM
same,TGI,DLD-1 colon,> 100 µM
same,TGI,DMS 114 small cell lung,42.8 µM
same,TGI,DMS 273 small cell lung,53.1 µM
same,TGI,EKVX NSCLC,> 100 µM
same,TGI,HCC-2998 colon,> 100 µM
same,TGI,HCT-116 colon,> 80.9 µM
same,TGI,HCT-15 colon,> 100 µM
same,TGI,HL-60(TB) leukemia,19.7 µM
same,TGI,HOP-18 NSCLC,> 94.8 µM
same,TGI,HOP-62 NSCLC,64.1 µM
same,TGI,HOP-92 NSCLC,63.8 µM
same,TGI,HT29 colon,> 100 µM
same,TGI,IGROV1 ovarian,> 100 µM
same,TGI,K-562 leukemia,51.5 µM
same,TGI,KM12 colon,> 100 µM
same,TGI,KM20L2 colon,> 100 µM
same,TGI,LOX IMVI melanoma,65.3 µM
same,TGI,LXFL 529 NSCLC,> 100 µM
same,TGI,M14 melanoma,> 100 µM
same,TGI,M19-MEL melanoma,> 100 µM
same,TGI,MALME-3M melanoma,> 100 µM
same,TGI,MOLT-4 leukemia,33 µM
same,TGI,NCI-H226 lung,68.9 µM
same,TGI,NCI-H23 lung,65.1 µM
same,TGI,NCI-H460 lung,> 85.3 µM
same,TGI,NCI-H522 lung,34.7 µM
same,TGI,OVCAR-3 ovarian,> 100 µM
same,TGI,OVCAR-4 ovarian,99.3 µM
same,TGI,OVCAR-5 ovarian,> 96.1 µM
same,TGI,OVCAR-8 ovarian,> 95.1 µM
same,TGI,RPMI-8226 leukemia,40 µM
same,TGI,RXF 393 renal,> 95.7 µM
same,TGI,SF-268 CNS,> 100 µM
same,TGI,SF-295 CNS,> 94.7 µM
same,TGI,SF-539 CNS,> 100 µM
same,TGI,SK-MEL-2 melanoma,> 74.7 µM
same,TGI,SK-MEL-28 melanoma,> 100 µM
same,TGI,SK-MEL-5 melanoma,33.2 µM
same,TGI,SK-OV-3 ovarian,> 100 µM
same,TGI,SN12C renal,98.6 µM
same,TGI,SNB-19 CNS,> 100 µM
same,TGI,SNB-75 CNS,78.7 µM
same,TGI,SNB-78 CNS,> 76.6 µM
same,TGI,SR leukemia,40.1 µM
same,TGI,SW-620 colon,> 100 µM
same,TGI,TK-10 renal,> 100 µM
same,TGI,U251 CNS,> 100 µM
same,TGI,UACC-257 melanoma,> 73.3 µM
same,TGI,UACC-62 melanoma,> 100 µM
same,TGI,UO-31 renal,> 100 µM
same,TGI,XF 498 CNS,41.7 µM
C=CCNC(=O)NCCCCC(NC(C)=O)C(=O)NCc1ccccc1 (configuration not stated),TGI,786-0 renal,> 100 µM
same,TGI,A498 renal,> 100 µM
same,TGI,A549 NSCLC,> 100 µM
same,TGI,ACHN renal,> 100 µM
same,TGI,CAKI-1 renal,> 100 µM
same,TGI,CCRF-CEM leukemia,> 100 µM
same,TGI,COLO 205 colon,> 100 µM
same,TGI,DMS 114 small cell lung,> 100 µM
same,TGI,DMS 273 small cell lung,> 100 µM
same,TGI,EKVX NSCLC,> 100 µM
same,TGI,HCC-2998 colon,> 100 µM
same,TGI,HCT-15 colon,> 100 µM
same,TGI,HL-60(TB) leukemia,> 100 µM
same,TGI,HOP-18 NSCLC,> 100 µM
same,TGI,HOP-62 NSCLC,> 100 µM
same,TGI,HOP-92 NSCLC,> 100 µM
same,TGI,HT29 colon,> 100 µM
same,TGI,IGROV1 ovarian,> 100 µM
same,TGI,K-562 leukemia,> 100 µM
same,TGI,KM12 colon,> 100 µM
same,TGI,KM20L2 colon,> 100 µM
same,TGI,LOX IMVI melanoma,> 100 µM
same,TGI,LXFL 529 NSCLC,> 100 µM
same,TGI,M14 melanoma,> 100 µM
same,TGI,M19-MEL melanoma,> 100 µM
same,TGI,MALME-3M melanoma,> 100 µM
same,TGI,MOLT-4 leukemia,> 100 µM
same,TGI,NCI-H226 lung,> 100 µM
same,TGI,NCI-H23 lung,> 100 µM
same,TGI,NCI-H460 lung,> 100 µM
same,TGI,NCI-H522 lung,> 100 µM
same,TGI,OVCAR-3 ovarian,> 100 µM
same,TGI,OVCAR-4 ovarian,> 100 µM
same,TGI,OVCAR-5 ovarian,> 100 µM
same,TGI,OVCAR-8 ovarian,> 100 µM
same,TGI,RPMI-8226 leukemia,> 100 µM
same,TGI,RXF 393 renal,> 100 µM
same,TGI,SF-268 CNS,> 100 µM
same,TGI,SF-295 CNS,> 100 µM
same,TGI,SF-539 CNS,> 100 µM
same,TGI,SK-MEL-2 melanoma,> 100 µM
same,TGI,SK-MEL-28 melanoma,> 100 µM
same,TGI,SK-MEL-5 melanoma,> 100 µM
same,TGI,SK-OV-3 ovarian,> 100 µM
same,TGI,SN12C renal,> 100 µM
same,TGI,SNB-19 CNS,> 100 µM
same,TGI,SNB-75 CNS,> 100 µM
same,TGI,SW-620 colon,> 100 µM
same,TGI,TK-10 renal,> 100 µM
same,TGI,U251 CNS,> 100 µM
same,TGI,UACC-257 melanoma,> 100 µM
same,TGI,UACC-62 melanoma,> 100 µM
same,TGI,UO-31 renal,> 100 µM
same,TGI,XF 498 CNS,> 100 µM
